Data from patent US20230096766A1, “AMINO ACID HAVING FUNCTIONAL GROUP CAPABLE OF INTERMOLECULAR HYDROGEN BONDING, PEPTIDE COMPOUND CONTAINING SAME AND METHOD FOR PRODUCTION THEREOF” (Chugai Seiyaku Kabushiki Kaisha, priority 2018, published 2023).
*1 amine or outer side, *2 acyl side, *3 side chain or, on linkers, in order; H or OH if unused. Where a SMILES comes first, the peptide text is derived from it. Bridges are numbered along the chain shown (N, C = ends). [ ]: non-standard residue; d: D form. The star is where a group is joined. ξ: configuration not given here. Phe(3-OMe,4-CONHMs) = COc1cc(C[C@H](N)C(=O)O)ccc1C(=O)NS(C)(=O)=O; NMeAbu(3,3-F2-piperidino) = CN[C@@H](CCN1CCCC(F)(F)C1)C(=O)O; dhPhe(4-CONHMe,3-OMe) = CNC(=O)c1ccc(CC[C@@H](N)C(=O)O)cc1OC; hPhe(3-OMe,4-CONHMe) = CNC(=O)c1ccc(CC[C@H](N)C(=O)O)cc1OC; Phe(4-CF3) = N[C@@H](Cc1ccc(C(F)(F)F)cc1)C(=O)O; Phe(4-COOH) = N[C@@H](Cc1ccc(C(=O)O)cc1)C(=O)O; NMePhe(3-Cl) = CN[C@@H](Cc1cccc(Cl)c1)C(=O)O; X12 = O=C([C@H](CCCC(O)C(F)(F)F)N[*:1])[*:2]; Tyr(3-OMe) = COc1cc(C[C@H](N)C(=O)O)ccc1O; NMeW = CN[C@@H](Cc1c[nH]c2ccccc12)C(=O)O; NMehPhe = CN[C@@H](CCc1ccccc1)C(=O)O; Propyl(2,2-Me2,3-OH) = CC(C)(CO)C*; NMeF = CN[C@@H](Cc1ccccc1)C(=O)O; NMeGABA = CN(CCCC(=O)[*:2])[*:1]; NMeI = CC[C@H](C)[C@H](NC)C(=O)O; NMeξIle = CC[C@H](C)C(NC)C(=O)O; Butyl(3-Me,3-OH) = CC(C)(O)CC*; CH2CH(OH)CF3 = OC(C*)C(F)(F)F; NMeL = CN[C@@H](CC(C)C)C(=O)O; Butyl(3R-OH) = C[C@@H](O)CC*; NMeV = CN[C@H](C(=O)O)C(C)C; NMeAbu = CC[C@H](NC)C(=O)O; NMeA = CN[C@@H](C)C(=O)O; Piperidide = C1CCN(*)CC1; Me2NCH2CH2 = CN(C)CC*; NBuGly = CCCCNCC(=O)O; Isopentyl = CC(C)CC*; ξV = CC(C)C(N)C(=O)O; N(OH)Me = CN(O)*; X3 = C[C@H](O)C*; Sar = CNCC(=O)O; tBu = CC(C)(C)*

assay: in vitro; details: human, Caco-2, Caco-2

SMILES	Papp [×10⁻⁶ cm/s]
CC(C)C[C@@H]1NC(=O)[C@H](CC(C)C)N(C)C(=O)CCCN(C)C(=O)C[C@@H](C(=O)N2CCCCC2)NC(=O)[C@H](CC(C)C)N(C)C(=O)[C@H](CC(C)C)N(C)C(=O)[C@H]([C@@H](C)O)NC(=O)[C@H](CC(C)C)N(C)C(=O)[C@H](COCCN(C)C)NC(=O)[C@H](Cc2ccccc2)N(C)C(=O)[C@H](Cc2ccccc2)N(C)C1=O [pd54] ([NMeGABA][NMeL]L[NMeF][NMeF]S(Me2NCH2CH2)[NMeL]T[NMeL][NMeL]D-Piperidide; lactam N-11)	0.073
CC(C)C[C@@H]1NC(=O)[C@H](C)N(C)C(=O)C[C@@H](C(=O)N2CCCCC2)NC(=O)[C@H](C(C)C)N(C)C(=O)CN(C)C(=O)[C@H]([C@@H](C)O)NC(=O)[C@H](CCN2CCCC(F)(F)C2)N(C)C(=O)[C@H](Cc2ccccc2)N(C)C(=O)[C@H](CC(C)C)NC(=O)[C@H](Cc2ccccc2)N(C)C(=O)[C@H](CC(C)C)N(C)C1=O [pd391] ([NMeA]L[NMeL][NMeF]L[NMeF][NMeAbu(3,3-F2-piperidino)]T[Sar][NMeV]D-Piperidide; lactam N-11)	2.4

same assay, conditions: human, Caco-2, Caco-2 (cm/sec)

SMILES	Papp [×10⁻⁶ cm/s]
CC(C)CCOC[C@@H]1NC(=O)[C@H](CC(C)C)N(C)C(=O)CN(C)C(=O)[C@H]([C@@H](C)O)NC(=O)[C@H](CC(C)C)N(C)C(=O)[C@H](COCCC(C)(C)O)NC(=O)[C@H](Cc2ccccc2)N(C)C(=O)[C@@H](C(C)C)NC(=O)C[C@@H](C(=O)N2CCCCC2)NC(=O)[C@H](CC(C)C)N(C)C(=O)[C@H](Cc2ccccc2)N(C)C1=O [AP51] ([dV][NMeF]S(Butyl(3-Me,3-OH))[NMeL]T[Sar][NMeL]S(Isopentyl)[NMeF][NMeL]D-Piperidide; lactam N-11)	1.4
CC(C)C[C@@H]1NC(=O)[C@H](Cc2ccccc2)N(C)C(=O)[C@H](CC(C)C)N(C)C(=O)[C@H](COCCC(C)(C)O)NC(=O)[C@H](C)N(C)C(=O)C[C@@H](C(=O)N2CCCCC2)NC(=O)[C@H](CC(C)C)N(C)C(=O)CN(C)C(=O)[C@H]([C@@H](C)O)NC(=O)[C@H](CC(C)C)N(C)C(=O)[C@H](CCc2ccccc2)N(C)C1=O [AP55] ([NMeA]S(Butyl(3-Me,3-OH))[NMeL][NMeF]L[NMehPhe][NMeL]T[Sar][NMeL]D-Piperidide; lactam N-11)	1.3
CC[C@H](C)[C@@H]1NC(=O)[C@H](CC(C)C)N(C)C(=O)CCCN(C)C(=O)C[C@@H](C(=O)N2CCCCC2)NC(=O)[C@H](CC(C)C)N(C)C(=O)[C@H](CC(C)C)N(C)C(=O)[C@H]([C@@H](C)O)NC(=O)[C@H](CC(C)C)N(C)C(=O)[C@@H](CCc2ccc(C(=O)NC)c(OC)c2)NC(=O)[C@H](CC(C)C)N(C)C(=O)[C@H](Cc2ccccc2)N(C)C1=O [AP210] ([NMeGABA][NMeL]I[NMeF][NMeL][dhPhe(4-CONHMe,3-OMe)][NMeL]T[NMeL][NMeL]D-Piperidide; lactam N-11)	0.34
CCCCN1CC(=O)N(C)[C@@H](CC(C)C)C(=O)N[C@@H](Cc2ccc(C(=O)NS(C)(=O)=O)c(OC)c2)C(=O)N(C)[C@@H](CC(C)C)C(=O)N(C)[C@@H](CC(C)C)C(=O)N[C@H](C(=O)N2CCCCC2)CC(=O)N[C@H](CC(C)C)C(=O)N(C)[C@@H](Cc2ccccc2)C(=O)N[C@@H](C(C)C)C(=O)N(C)[C@@H](CC(C)C)C(=O)N[C@@H]([C@@H](C)O)C1=O [AP136] ([dL][NMeF]V[NMeL]T[NBuGly][NMeL][Phe(3-OMe,4-CONHMs)][NMeL][NMeL]D-Piperidide; lactam N-11)	0.47
CC(C)C[C@H]1C(=O)NC(C(C)C)C(=O)N(C)[C@@H](Cc2ccccc2)C(=O)N(C)[C@@H](Cc2cccc(Cl)c2)C(=O)N[C@@H](COCC[C@@H](C)O)C(=O)N(C)[C@@H](CC(C)C)C(=O)N[C@@H]([C@@H](C)O)C(=O)N(C)[C@@H](CC(C)C)C(=O)N(C)[C@@H](CC(C)C)C(=O)N[C@H](C(=O)N2CCCCC2)CC(=O)N(C)CCCC(=O)N1C (stereo partly drawn) [AP111] ([NMeGABA][NMeL][ξV][NMeF][NMePhe(3-Cl)]S(Butyl(3R-OH))[NMeL]T[NMeL][NMeL]D-Piperidide; lactam N-11)	0.13
CC(C)C[C@@H]1NC(=O)[C@H](Cc2ccccc2)N(C)C(=O)[C@@H](C(C)C)NC(=O)C[C@@H](C(=O)N2CCCCC2)NC(=O)[C@H](CC(C)C)N(C)C(=O)[C@H](Cc2ccccc2)N(C)C(=O)[C@H](COCC(C)(C)CO)NC(=O)[C@H](CC(C)C)N(C)C(=O)CN(C)C(=O)[C@H]([C@@H](C)O)NC(=O)[C@H](CC(C)C)N(C)C1=O [AP118] ([dV][NMeF]L[NMeL]T[Sar][NMeL]S(Propyl(2,2-Me2,3-OH))[NMeF][NMeL]D-Piperidide; lactam N-11)	1.8
CCCCN1CC(=O)N(C)[C@@H](CC(C)C)C(=O)N(C)[C@@H](CC(C)C)C(=O)N[C@@H](COC(C)(C)C)C(=O)N(C)[C@@H](CC(C)C)C(=O)N[C@H](C(=O)N2CCCCC2)CC(=O)N(C)CC(=O)N(C)[C@@H](Cc2cccc(Cl)c2)C(=O)N[C@@H](Cc2ccc(C(=O)N(C)O)cc2)C(=O)N(C)[C@@H](CC(C)C)C(=O)N[C@@H]([C@@H](C)O)C1=O [AP254] ([Sar][NMePhe(3-Cl)][Phe(4-COOH)](N(OH)Me)[NMeL]T[NBuGly][NMeL][NMeL]S(tBu)[NMeL]D-Piperidide; lactam N-11)	0.15
COc1cc(C[C@@H]2NC(=O)[C@H](CC(C)C)N(C)C(=O)CCCN(C)C(=O)C[C@@H](C(=O)N3CCCCC3)NC(=O)[C@H](CC(C)C)N(C)C(=O)[C@H](CC(C)C)N(C)C(=O)[C@H]([C@@H](C)O)NC(=O)[C@H](CC(C)C)N(C)C(=O)[C@H](COC(C)(C)C)NC(=O)[C@H](Cc3ccccc3)N(C)C(=O)[C@H](CC(C)C)N(C)C2=O)ccc1O [Compound E04] ([NMeGABA][NMeL][Tyr(3-OMe)][NMeL][NMeF]S(tBu)[NMeL]T[NMeL][NMeL]D-Piperidide; lactam N-11)	0.4
CC[C@H](C)[C@@H]1NC(=O)[C@H](CC(C)C)N(C)C(=O)CCCN(C)C(=O)C[C@@H](C(=O)N2CCCCC2)NC(=O)[C@H](CC(C)C)N(C)C(=O)[C@H](CC(C)C)N(C)C(=O)[C@H]([C@@H](C)O)NC(=O)[C@H](CC(C)C)N(C)C(=O)[C@H](CCc2ccc(C(=O)NC)c(OC)c2)NC(=O)[C@H](CC(C)C)N(C)C(=O)[C@H](Cc2ccccc2)N(C)C1=O [AP202] ([NMeGABA][NMeL]I[NMeF][NMeL][hPhe(3-OMe,4-CONHMe)][NMeL]T[NMeL][NMeL]D-Piperidide; lactam N-11)	0.18
CC(C)C[C@H]1C(=O)N(C)[C@@H](CC(C)C)C(=O)N(C)[C@@H](Cc2c[nH]c3ccccc23)C(=O)N[C@@H]([C@@H](C)O)C(=O)N(C)[C@@H](C)C(=O)N(C)[C@@H](CC(C)C)C(=O)N[C@H](C(=O)N2CCCCC2)CC(=O)N(C)[C@@H](C)C(=O)N(C)[C@@H](CC(C)C)C(=O)N(C)[C@@H](CC(C)C)C(=O)N[C@@H](C)C(=O)N1C [pd105] ([NMeA][NMeL][NMeL]A[NMeL][NMeL][NMeW]T[NMeA][NMeL]D-Piperidide; lactam N-11)	0.28
CC(C)CCOC[C@@H]1NC(=O)[C@H](Cc2cccc(Cl)c2)N(C)C(=O)[C@H](Cc2ccccc2)N(C)C(=O)[C@H](COC[C@H](C)O)NC(=O)[C@H](CC(C)C)N(C)C(=O)CCCN(C)C(=O)C[C@@H](C(=O)N2CCCCC2)NC(=O)[C@H](CC(C)C)N(C)C(=O)[C@H](CC(C)C)N(C)C(=O)[C@H]([C@@H](C)O)NC(=O)[C@H](CC(C)C)N(C)C1=O [AP63] ([NMeGABA][NMeL]S(X3)[NMeF][NMePhe(3-Cl)]S(Isopentyl)[NMeL]T[NMeL][NMeL]D-Piperidide; lactam N-11)	0.14
CC[C@H]1C(=O)N[C@@H](CC(C)C)C(=O)N(C)[C@@H](CC(C)C)C(=O)N(C)[C@@H](Cc2ccccc2)C(=O)N[C@@H](Cc2ccc(O)c(OC)c2)C(=O)N(C)[C@@H](CC(C)C)C(=O)N(C)[C@@H](CC(C)C)C(=O)N[C@@H]([C@@H](C)O)C(=O)N(C)CC(=O)N(C)[C@@H](CC(C)C)C(=O)N[C@H](C(=O)N2CCCCC2)CC(=O)N1C [Compound E05] ([NMeAbu]L[NMeL][NMeF][Tyr(3-OMe)][NMeL][NMeL]T[Sar][NMeL]D-Piperidide; lactam N-11)	1.8
CCCCN1CC(=O)N(C)[C@@H](Cc2ccccc2)C(=O)N(C)[C@@H](CC(C)C)C(=O)N[C@@H](CC(C)C)C(=O)N(C)[C@@H](CC(C)C)C(=O)N[C@H](C(=O)N2CCCCC2)CC(=O)N(C)CC(=O)N(C)[C@@H](CC(C)C)C(=O)N[C@@H](CCc2ccc(C(=O)NC)c(OC)c2)C(=O)N(C)[C@@H](CC)C(=O)N[C@@H]([C@@H](C)O)C1=O [AP206] ([Sar][NMeL][hPhe(3-OMe,4-CONHMe)][NMeAbu]T[NBuGly][NMeF][NMeL]L[NMeL]D-Piperidide; lactam N-11)	0.86

same assay, conditions: human, Caco-2, Caco-2 (membrane permeability)

SMILES	Papp [×10⁻⁶ cm/s]
CCCCN1CC(=O)N(C)[C@@H](Cc2ccccc2)C(=O)N(C)[C@@H](CC(C)C)C(=O)N[C@@H](COC(C)(C)C)C(=O)N(C)[C@@H](CC(C)C)C(=O)N[C@H](C(=O)N2CCCCC2)CC(=O)N(C)CC(=O)N(C)[C@@H](Cc2ccccc2)C(=O)N[C@@H](C(C)C)C(=O)N(C)[C@@H](CC)C(=O)N[C@@H](COCC(O)C(F)(F)F)C1=O (stereo partly drawn) [Compound C16] ([Sar][NMeF]V[NMeAbu]S(CH2CH(OH)CF3)[NBuGly][NMeF][NMeL]S(tBu)[NMeL]D-Piperidide; lactam N-11)	0.41
CC[C@H](C)C1C(=O)NC(C(C)C)C(=O)N(C)CC(=O)N(C)[C@@H](CC(C)C)C(=O)N[C@H](C(=O)N2CCCCC2)CC(=O)N(C)[C@@H](C)C(=O)N[C@@H](CCCC(O)C(F)(F)F)C(=O)N(C)[C@@H](CC(C)C)C(=O)N(C)[C@@H](Cc2ccccc2)C(=O)N[C@@H](CC(C)C)C(=O)N(C)[C@@H](Cc2ccccc2)C(=O)N1C (stereo partly drawn) [Compound D15] ([NMeA][X12][NMeL][NMeF]L[NMeF][NMeξIle][ξV][Sar][NMeL]D-Piperidide; lactam N-11)	0.61
CCCCN1CC(=O)N(C)[C@@H](CC(C)C)C(=O)N[C@@H](CCC(=O)NC)C(=O)N(C)[C@@H](Cc2ccccc2)C(=O)N(C)[C@@H]([C@@H](C)CC)C(=O)N[C@H](C(=O)N2CCCCC2)CC(=O)N[C@H](CC(C)C)C(=O)N(C)[C@@H](CC(C)C)C(=O)N[C@@H](Cc2ccc(C(F)(F)F)cc2)C(=O)N(C)[C@@H](CC(C)C)C(=O)N[C@@H]([C@@H](C)O)C1=O [Compound J02] ([dL][NMeL][Phe(4-CF3)][NMeL]T[NBuGly][NMeL]E(NHMe)[NMeF][NMeI]D-Piperidide; lactam N-11)	0.004
